The results in this text go back to article PMC10896643 (Journal of medicinal chemistry, 2023).

Entries after “also recorded” stand apart in the source; their conditions may differ.

In one data set the target is T1, hA3AR (Homo sapiens, UniProt P0DMS8).
T1 sequence (P0DMS8 1-318): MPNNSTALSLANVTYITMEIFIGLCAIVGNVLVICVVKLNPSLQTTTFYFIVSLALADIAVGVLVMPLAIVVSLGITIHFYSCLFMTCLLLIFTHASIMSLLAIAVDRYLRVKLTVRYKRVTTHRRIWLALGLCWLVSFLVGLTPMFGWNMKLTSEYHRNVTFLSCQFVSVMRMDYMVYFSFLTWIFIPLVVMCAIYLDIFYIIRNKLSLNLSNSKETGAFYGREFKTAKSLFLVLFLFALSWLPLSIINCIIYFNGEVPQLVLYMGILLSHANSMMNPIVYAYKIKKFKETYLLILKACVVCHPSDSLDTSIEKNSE
In words: cAMP functional assay in CHO-A3 cells. The note with it: 10 μM.

The target in another data set is hA2AAR (Homo sapiens, UniProt P29274). The data set can be described thus: cAMP functional assay in CHO-A2A cells. The note with it: 10 μM.
Another data set has as its target CYP2C19 (Homo sapiens, UniProt P33261). In words: CYP isoform inhibition. The format is in vitro ADME.
The next data set concerns 4T1-Luc tumors. In words: In vivo antitumor activity in 4T1-Luc tumor-bearing mice. As to conditions: 10 mg/kg i.p., alone or with anti-PD-L1.
Another data set addresses T2, CYP1A2 (Homo sapiens, UniProt P05177).
T2 sequence (P05177 1-516): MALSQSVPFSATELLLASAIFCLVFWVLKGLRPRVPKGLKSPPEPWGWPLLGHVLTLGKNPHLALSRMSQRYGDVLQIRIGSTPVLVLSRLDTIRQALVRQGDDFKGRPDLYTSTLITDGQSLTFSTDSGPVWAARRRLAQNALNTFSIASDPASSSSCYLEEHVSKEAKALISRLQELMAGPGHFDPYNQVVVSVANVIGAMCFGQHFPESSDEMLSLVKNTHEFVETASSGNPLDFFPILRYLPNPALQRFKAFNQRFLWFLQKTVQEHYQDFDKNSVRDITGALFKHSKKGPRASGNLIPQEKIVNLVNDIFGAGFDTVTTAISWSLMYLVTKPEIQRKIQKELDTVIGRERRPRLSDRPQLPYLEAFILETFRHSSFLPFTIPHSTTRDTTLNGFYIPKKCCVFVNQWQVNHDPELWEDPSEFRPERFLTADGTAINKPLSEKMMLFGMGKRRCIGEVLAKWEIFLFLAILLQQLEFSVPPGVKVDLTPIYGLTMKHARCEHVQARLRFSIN
The data set can be described thus: CYP isoform inhibition. It is filed as in vitro ADME.

In a further data set the target is CYP3A4 (Homo sapiens, UniProt P08684). In words: CYP isoform inhibition. It is filed as in vitro ADME.
A further data set addresses CYP2D6 (Homo sapiens, UniProt P10635). The data set can be described thus: CYP isoform inhibition. The format is in vitro ADME.
The target of another data set is CYP2C9 (Homo sapiens, UniProt P11712). In words: CYP isoform inhibition. It is filed as in vitro ADME.
The next data set has as its target hERG K+ channels (Homo sapiens, UniProt Q12809). The data set can be described thus: hERG K+ channel inhibition. It is filed as in vitro ADME. For orientation: hERG is a cardiac potassium channel; its block is linked to QT prolongation.

hA2AAR, sequence (P29274 whole entry, canonical isoform): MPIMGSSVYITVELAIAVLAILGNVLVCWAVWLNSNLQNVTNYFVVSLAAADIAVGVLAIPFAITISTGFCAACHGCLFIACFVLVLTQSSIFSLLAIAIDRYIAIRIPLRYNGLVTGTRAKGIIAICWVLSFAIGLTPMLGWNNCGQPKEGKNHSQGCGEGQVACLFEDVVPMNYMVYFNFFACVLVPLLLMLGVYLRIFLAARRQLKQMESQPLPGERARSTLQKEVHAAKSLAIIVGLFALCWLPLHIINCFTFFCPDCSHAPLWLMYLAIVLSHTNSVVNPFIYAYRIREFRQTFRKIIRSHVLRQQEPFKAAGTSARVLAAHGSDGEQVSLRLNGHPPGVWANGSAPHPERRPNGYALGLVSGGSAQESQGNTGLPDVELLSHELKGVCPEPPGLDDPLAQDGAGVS
hERG K+ channels, sequence (Q12809 whole entry): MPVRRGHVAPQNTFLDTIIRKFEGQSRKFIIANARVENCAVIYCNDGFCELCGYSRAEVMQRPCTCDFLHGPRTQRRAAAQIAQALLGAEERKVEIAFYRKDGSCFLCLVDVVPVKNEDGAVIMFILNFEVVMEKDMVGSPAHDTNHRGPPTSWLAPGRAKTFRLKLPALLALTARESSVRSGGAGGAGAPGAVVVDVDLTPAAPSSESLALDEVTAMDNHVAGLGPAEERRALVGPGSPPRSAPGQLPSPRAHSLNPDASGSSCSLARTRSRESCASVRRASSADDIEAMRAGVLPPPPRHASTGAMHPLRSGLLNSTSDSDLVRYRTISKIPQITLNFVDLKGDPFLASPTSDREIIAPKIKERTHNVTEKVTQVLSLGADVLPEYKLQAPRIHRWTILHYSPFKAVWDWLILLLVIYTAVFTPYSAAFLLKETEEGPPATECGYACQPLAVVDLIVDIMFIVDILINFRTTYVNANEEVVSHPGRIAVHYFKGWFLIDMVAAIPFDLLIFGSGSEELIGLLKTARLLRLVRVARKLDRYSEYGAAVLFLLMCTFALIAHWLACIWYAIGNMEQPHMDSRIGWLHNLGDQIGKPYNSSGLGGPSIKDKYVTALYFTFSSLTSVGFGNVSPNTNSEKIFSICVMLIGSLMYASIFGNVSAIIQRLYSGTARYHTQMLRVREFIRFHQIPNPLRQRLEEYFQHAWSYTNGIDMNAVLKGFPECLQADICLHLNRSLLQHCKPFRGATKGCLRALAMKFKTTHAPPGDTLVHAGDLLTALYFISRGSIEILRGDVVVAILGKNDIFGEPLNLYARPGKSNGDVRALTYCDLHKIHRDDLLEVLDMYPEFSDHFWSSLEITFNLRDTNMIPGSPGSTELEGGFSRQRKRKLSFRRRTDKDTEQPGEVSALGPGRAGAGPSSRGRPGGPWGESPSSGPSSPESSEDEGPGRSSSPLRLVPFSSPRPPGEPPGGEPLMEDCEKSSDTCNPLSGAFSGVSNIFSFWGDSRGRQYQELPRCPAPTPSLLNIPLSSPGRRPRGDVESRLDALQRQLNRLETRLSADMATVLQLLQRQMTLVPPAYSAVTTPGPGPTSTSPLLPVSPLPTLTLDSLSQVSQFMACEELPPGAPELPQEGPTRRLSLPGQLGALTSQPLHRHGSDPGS
CYP3A4, sequence (P08684 whole entry, species assumed, canonical isoform): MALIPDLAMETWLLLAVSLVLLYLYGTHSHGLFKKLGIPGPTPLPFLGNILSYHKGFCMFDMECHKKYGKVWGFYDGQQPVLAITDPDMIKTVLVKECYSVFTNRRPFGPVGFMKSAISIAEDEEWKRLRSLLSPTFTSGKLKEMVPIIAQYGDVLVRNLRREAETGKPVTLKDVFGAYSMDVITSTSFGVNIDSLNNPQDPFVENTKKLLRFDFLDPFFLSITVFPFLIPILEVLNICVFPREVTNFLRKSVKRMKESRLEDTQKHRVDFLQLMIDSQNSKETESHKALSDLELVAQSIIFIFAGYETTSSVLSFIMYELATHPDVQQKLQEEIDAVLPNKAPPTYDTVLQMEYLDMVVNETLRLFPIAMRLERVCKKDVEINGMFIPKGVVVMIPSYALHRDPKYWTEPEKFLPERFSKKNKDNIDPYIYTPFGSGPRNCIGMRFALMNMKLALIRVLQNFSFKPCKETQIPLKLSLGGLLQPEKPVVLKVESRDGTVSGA
CYP2C19, sequence (P33261 whole entry, species assumed, canonical isoform): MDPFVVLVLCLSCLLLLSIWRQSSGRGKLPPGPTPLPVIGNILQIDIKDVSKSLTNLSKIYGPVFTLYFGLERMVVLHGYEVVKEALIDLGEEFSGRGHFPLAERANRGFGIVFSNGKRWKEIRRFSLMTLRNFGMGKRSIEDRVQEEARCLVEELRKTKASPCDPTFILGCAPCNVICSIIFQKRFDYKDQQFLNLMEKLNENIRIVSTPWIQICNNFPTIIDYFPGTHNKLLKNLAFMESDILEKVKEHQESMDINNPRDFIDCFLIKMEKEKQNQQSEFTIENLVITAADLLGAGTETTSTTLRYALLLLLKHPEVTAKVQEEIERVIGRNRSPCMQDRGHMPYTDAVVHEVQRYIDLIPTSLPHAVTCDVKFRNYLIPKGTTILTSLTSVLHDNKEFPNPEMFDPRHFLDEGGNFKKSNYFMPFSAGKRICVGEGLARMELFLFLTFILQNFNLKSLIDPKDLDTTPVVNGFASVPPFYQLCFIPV
CYP2D6, sequence (P10635 whole entry, species assumed, canonical isoform): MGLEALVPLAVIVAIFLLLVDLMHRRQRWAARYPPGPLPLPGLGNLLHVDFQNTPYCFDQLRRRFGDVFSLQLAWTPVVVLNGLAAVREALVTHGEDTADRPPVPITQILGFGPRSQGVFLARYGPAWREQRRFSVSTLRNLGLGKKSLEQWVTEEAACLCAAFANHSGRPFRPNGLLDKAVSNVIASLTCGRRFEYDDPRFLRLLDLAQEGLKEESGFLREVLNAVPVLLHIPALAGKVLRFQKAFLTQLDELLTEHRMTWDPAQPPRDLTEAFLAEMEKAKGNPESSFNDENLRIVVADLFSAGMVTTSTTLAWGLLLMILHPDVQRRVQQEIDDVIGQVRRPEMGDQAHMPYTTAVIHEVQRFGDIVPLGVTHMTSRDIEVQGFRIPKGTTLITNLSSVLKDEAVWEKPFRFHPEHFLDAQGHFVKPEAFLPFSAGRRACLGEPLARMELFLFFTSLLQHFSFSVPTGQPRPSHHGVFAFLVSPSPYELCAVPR
CYP2C9, sequence (P11712 whole entry, species assumed, canonical isoform): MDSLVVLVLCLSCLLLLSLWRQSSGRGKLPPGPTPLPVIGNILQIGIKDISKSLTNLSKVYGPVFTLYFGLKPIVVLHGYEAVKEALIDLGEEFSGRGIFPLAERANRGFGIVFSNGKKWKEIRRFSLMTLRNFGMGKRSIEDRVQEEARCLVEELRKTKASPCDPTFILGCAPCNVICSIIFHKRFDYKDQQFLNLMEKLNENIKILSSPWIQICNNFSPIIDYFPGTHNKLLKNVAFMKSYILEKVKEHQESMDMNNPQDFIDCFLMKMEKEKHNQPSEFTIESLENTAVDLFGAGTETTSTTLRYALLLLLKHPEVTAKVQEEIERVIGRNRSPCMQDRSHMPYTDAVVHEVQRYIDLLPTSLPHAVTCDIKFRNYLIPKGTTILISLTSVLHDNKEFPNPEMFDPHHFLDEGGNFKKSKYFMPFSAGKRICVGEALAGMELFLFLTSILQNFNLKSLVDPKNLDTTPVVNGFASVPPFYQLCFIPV

Turning to `CCCCC#Cc1nc(N)c2nc(-c3ccco3)n([C@@H]3OC[C@@H](O)[C@H]3O)c2n1` [5a, (2R,3R,4R)-2-(6-Amino-8-(furan-2-yl)-2-(hex-1-yn-1-yl)-9H-purin-9-yl)tetrahydrofuran-3,4-diol], the “hA3AR activation” value on hA3AR is on record as “inhibited hA3AR activation”. Moreover, the “receptor activation / antagonism at hA2AAR” value on hA2AAR is “no receptor activation”.

On to `CCCCC#Cc1nc(N)c2nc(-c3cccs3)n([C@@H]3OC[C@@H](O)[C@H]3O)c2n1` [5d, (2R,3R,4R)-2-(6-Amino-2-(hex-1-yn-1-yl)-8-(thiophen-2-yl)-9H-purin-9-yl)tetrahydrofuran-3,4-diol], for which the CYP2C19 inhibition entry on CYP2C19 is listed as “did not significantly inhibit”. In addition, in the data set on 4T1-Luc tumors, the “adverse effects / body weight loss” value is “No adverse effects or body weight loss; also recorded: without any adverse effects and body weight loss”. For the same compound, the CYP1A2 inhibition result at CYP1A2 is on record as “did not significantly inhibit”. For the same compound, on CYP3A4, the CYP3A4 inhibition result was “did not significantly inhibit”. Besides, at CYP2D6, the CYP2D6 inhibition entry is “did not significantly inhibit”. The CYP2C9 inhibition entry at CYP2C9 is “did not significantly inhibit”. In addition, at hERG K+ channels, the “hERG K+ channel inhibition” value is on record as “did not significantly inhibit”.
